Laboratory results published in patent US7533723B2, “Well bore treatment fluid” (Schlumberger Technology Corporation, priority 2003, dated 2009).
Values joined by “and” are separate entries in the source; they are usually repeats but may differ in a detail not shown here. Identical values can stand only once.

Tests used:
[1] = Description: For the case of abietic acid, calcium abietate (Dertocal), polymerised calcium abietate (MERIGRAL™) and the phenolic modified resins (RESENOL™ and GRANOLITE™), insoluble residues were removed by filtration and the numbers given in Table 1 relate to the soluble fraction after filtration.
[2] = Well-mixed bottle tests: dilution of treatment fluid with brine or oil; type: physicochemical; conditions: T=25° C.
Description: In this case, the DPM solvent is 100% miscible with oil or brine.
Note that the oil and the treatment fluid are miscible.

[3] = Selective response in porous media, two feet long sandpacks (water zone / oil zone); conditions: for Brine permeability reduction corrected for treatment depth: water zone
Method: Candidate solvent-based treatment fluids were evaluated in porous media. […] Duplicate two feet long sandpacks were prepared using a specific blend of sand and silica flour.
Experiments were used to evaluate a treatment fluid containing 5 wt % calcium abietate pre-dissolved in a DPM/brine mixture.

[4] = remark: listed apart in the source
Method: Sandpack experiments were performed to evaluate the recovery of oil permeability after brine-induced precipitation.
The permeability ratio K(oil)/initial K(brine) is shown on the vertical y axis and this is plotted against the brine saturation (vol %) in the core.
The dark curve plotted with diamonds relates to the experiment wherein the starting point is a 10-ft pack saturated with brine (Sw=1, brine permeability Kw=960 mD). Oil is then flushed through it until the steady state is reached. During this operation, the water saturation in the pack decreases as water is mobilized and removed by the flow of oil. The oil permeability (Ko) is determined regularly during the process. The ratio K(oil)/initial K(brine) is then calculated and plotted against the water saturation. The oil permeability at steady state is 1300 mD, which gives Ko/Kwi=1.35 at Sw=29.5%.
The lighter curve plotted with triangles relates to the experiment wherein the 10-ft pack is saturated with brine (Sw=1, brine permeability Kw=800 mD). Half of it is then treated with 5 wt % resinate (calcium abietate, Dertocal) dissolved in solvent (DPM). Brine is then backflowed through the pack until the steady state is reached. […] Then, oil is flushed through the pack until the steady state is reached (Ko=1061 mD). Again, the ratio K(oil)/initial K(brine) is calculated and plotted against the water saturation. […]

[5] = Brine follow-up treatments, series of 3 treatments in 2-ft sand pack; conditions: 10 wt % in DPM
Method: The selective response to injections of treatment fluid and brine was carried out in porous media.
An experiment was performed in a 2-ft sand pack at ambient temperature and Sw=1. The experiment consisted in a series of 3 pack treatments (using a process of treatment fluid injection followed by brine injection), followed by brine backflow between each of the three treatments. The fluid used was 10 wt % resinate (calcium abietate, Dertocal) dissolved in DPM.
The volume of the treated zone is ⅔ of the pore volume (⅓ treatment fluid+⅓ brine). As shown, permeability reduced with each treatment.

[6] = Berea sandstone permeability experiments; conditions: 10 wt % in DPM, brine postflush, 20 psi/ft
Method: An experiment was performed in a 1 foot 250 mD Berea sandstone core at Sw=1, using a process of treatment fluid injection followed by follow-up brine injection.
Treatment fluid used: 10 wt % resinate (Calcium abietate, Dertocal) in solvent (DPM). The volume of the treated zone was ⅔ of the pore volume (⅓ treatment fluid+⅓ brine).
Brine permeability before treatment: 250 mD.
Brine permeability in the treated zone was reduced by 70%. The biggest damage (precipitation) appeared near the wellbore (region 1) where the reduction was 73%.
The biggest damage appeared near the wellbore (regions 1) where the reduction was 60%.

[7] = Abietate in pure diesel, Berea sandstone water and oil zones; conditions: 30 wt % dissolved in diesel, 50° C.
Method: The plot of FIG. 9 deals with the performance in water zones at 50° C. (Berea sandstone, k 100-150 mD; brine: 5 wt % NH4Cl in DI water) of the oil-based system (no miscibility with water/brine). The system contained 30 wt % calcium abietate dissolved in diesel.
The damage in the water zone was a function of the oil saturation prior to treatment. […] Since the brine and diesel-based treatment fluid are immiscible, it is unlikely that the precipitation of waxy solids accounts for the damage observed. Whilst it is possible that some minor precipitation may occur at interfaces, we suspect a viscous oil or viscous interface effect may be playing a role in reducing kbrine after backflow to steady-state.

CC(C)C1=CC2=CCC3[C@](C)(CCC[C@@]3(C)C(=O)O)C2CC1 (stereo partly drawn) [Abietic Acid, Abietic acid]
Solubility, Brine wt % [1]: 0.01 wt %
Solubility, Solvent wt % (solvent chemistry) [1]: ≧30 (DPM^(3)), ≧30 (EB^(4)) wt %
Behaviour on dilution with brine: [brine] at precipitation ([2]; 5 wt % dissolved in pure DPM): [brine] = 33 vol %

CC(C)C1=CC2=CCC3C(C)(C(=O)O)CCCC3(C)C2CC1 (stereo not drawn) [Ca Abietate, Calcium abietate]
Solubility, Brine wt % [1]: 0.01 wt %
Behaviour on dilution with brine: [brine] at precipitation ([2]; 5 wt % dissolved in pure DPM): [brine] = 23 vol %
Brine permeability reduction corrected for treatment depth ([3]; 5 wt % pre-dissolved in DPM/brine mixture): 54%
Brine permeability reduction corrected for treatment depth ([3]; 20 wt % in DPM, 20 psi/ft, 25° C.): 65% and 69%
Effect on permeability to oil ([3]; not told): no effect on permeability to oil
Brine permeability reduction ([4]; 5 wt % in DPM, half of 10-ft pack treated, brine backflow to steady state): 25%
Oil permeability Ko at steady state after oil flush ([4]; not told): 1061 mD
% Reduction (cumulative) ([5]; after treatment I): 51%
% Reduction (cumulative) ([5]; after treatment II): 72%
% Reduction (cumulative) ([5]; after treatment III): 88%
Brine permeability reduction in the treated zone ([6]; T=60° C.): 33.5%
Brine permeability reduction near the wellbore (regions 1) ([6]; T=60° C.): 60%
Brine permeability reduction in the treated zone ([6]; ambient temperature): 70%
Brine permeability reduction near the wellbore (region 1) ([6]; ambient temperature): 73%
% retained koil in oil zones [7]: 85-100%
kbrine reduction in water zones ([7]; So(pre-treatment) range 0-25%, brine 5 wt % NH4Cl): ≥ 70%

calcium neo-tridecanoate [Ca neo-Tridecanoate (dry)]
Behaviour on dilution with brine: [brine] at precipitation ([2]; 10 wt % dissolved in pure DPM): [brine] = 70 vol %

CC12CCC(CC1=O)C2(C)C (stereo not drawn) [Camphor, camphor]
Solubility, Brine wt % [1]: very
Solubility, Oil wt % [1]: ≧50.0^(7) wt %
Solubility, Solvent wt % (solvent chemistry) [1]: ≧50.0 (DPM^(3)) wt %

calcium neo-decanoate [Ca neo-Decanoate (dry^B)]
Behaviour on dilution with brine: [brine] at precipitation ([2]; 10 wt % dissolved in pure DPM): [brine] = 67 vol %
